Assay results from patent US20240058422A1, “GLUCAGON-LIKE PEPTIDE-1 RECEPTOR ANTAGONISTS” (INDIANA UNIVERSITY RESEARCH AND TECHNOLOGY CORPORATION, priority 2022, published 2024).
≈ marks a conversion by molar mass, not a printed value. Where two headings read alike, the source gives them in different places. Starred links: 1 amine or outer side, 2 acyl side, 3 side chain; linkers in the order of their positions; H or OH if unused. Non-standard residues stand in square brackets, D forms with d. Residues, ends and D or L forms follow the SMILES beside them. Groups on a side chain read outwards from the residue. *: point of attachment. C18 diacid = O=C(O)CCCCCCCCCCCCCCCCC(=O)*; γGlu = O=C(O)[C@H](CCC(=O)[*:2])N[*:1]; Palmitoyl = CCCCCCCCCCCCCCCC(=O)*; AEEA = NCCOCCOCC(=O)O; Aib = CC(C)(N)C(=O)O

Experiments:
[1] = target: GLP-1R (Homo sapiens, UniProt P43220); test: GLP-1 receptor-mediated cAMP induction, luciferase reporter gene antagonism assay; assay type: cell-based; design: host or cells: HEK 293; conditions: antagonism of 0.05 nM GLP-1, HEK 293 cells
Chain of GLP-1R (P43220 24-463): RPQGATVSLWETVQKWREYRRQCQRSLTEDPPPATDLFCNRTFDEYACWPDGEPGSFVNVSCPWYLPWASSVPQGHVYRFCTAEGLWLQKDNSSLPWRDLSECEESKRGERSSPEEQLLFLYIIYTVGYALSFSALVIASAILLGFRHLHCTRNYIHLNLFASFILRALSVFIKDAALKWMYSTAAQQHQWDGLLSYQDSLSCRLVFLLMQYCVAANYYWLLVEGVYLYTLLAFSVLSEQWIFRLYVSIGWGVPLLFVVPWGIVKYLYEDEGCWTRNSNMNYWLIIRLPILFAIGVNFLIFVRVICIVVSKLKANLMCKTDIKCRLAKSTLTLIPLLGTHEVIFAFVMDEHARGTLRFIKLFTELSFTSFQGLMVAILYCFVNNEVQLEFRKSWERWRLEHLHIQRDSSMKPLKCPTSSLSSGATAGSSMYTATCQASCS
Experimental: GLP-1 Receptor-Mediated cAMP Induction The ability of peptides to stimulate or block cAMP induction at the GLP-1 receptor was examined by a luciferase-based reporter gene assay. Cotransfection of HEK 293 cells with the human GLP-1 receptor (Open Biosystems) and a cAMPinducible (cAMPresponsive element) luciferase gene constituted the cellular construct where receptor activation could be measured. Bioassays were performed by first serum depriving the cells for 16 h in 0.25% bovine growth serum (HyClone)-supplemented Dulbecco's modified Eagle's medium (Invitrogen) and then adding serial dilutions of the peptides over the appropriate concentration ranges in 96-well poly-D-lysine-coated plates (BD Biosciences). For antagonism assays, a constant concentration of GLP-1 (0.05 nM) was added to the assay plate after the diluted peptides. Incubation continued for 5 h at 37° C., 5% CO2 and was followed by the addition of an equivalent volume (100 μL) of LucLite luminescence substrate reagent (Perkin-Elmer). MicroBeta 1450 liquid scintillation counting (Perkin-Elmer) quantified the luminescence signal in counts per second (cps) after shaking the plate at 600 rpm for 3 min. Data was plotted using Origin software (OriginLab) and the effective concentration 50 (EC50) or inhibitory concentration 50 (IC50) was determined by sigmoidal fitting. Potency was determined by comparative analysis of relative EC50 or IC50 values. Each experiment was repeated at least three times with each sample assayed in duplicate.

[2] = Solubility in buffer
[3] = 80 mM ammonium bicarbonate buffer, pH 7.7, Solubility [mg/mL] 80 mM AmBicarb pH7.7, Table 2, 80 mM AmBicarb pH7.7
[4] = 80 mM ammonium bicarbonate buffer, pH 7.7

## CC[C@H](C)[C@H](NC(=O)[C@H](Cc1ccccc1)NC(=O)[C@H](CCC(=O)O)NC(=O)[C@H](CCCNC(=N)N)NC(=O)[C@@H](NC(=O)[C@H](C)NC(=O)[C@H](CCC(N)=O)NC(=O)[C@H](CCC(=O)O)NC(=O)[C@H](CCC(=O)O)NC(=O)[C@H](CC(C)C)NC(=O)[C@H](Cc1ccc(O)cc1)NC(=O)[C@H](CO)NC(=O)[C@H](CO)NC(=O)[C@@H](NC(=O)[C@@H](N)CC(=O)O)C(C)C)C(C)C)C(=O)N[C@@H](C)C(=O)N[C@@H](Cc1c[nH]c2ccccc12)C(=O)N[C@@H](CC(C)C)C(=O)N[C@H](C(=O)N[C@@H](CCCCN)C(=O)NCC(=O)NCC(=O)N1CCC[C@H]1C(=O)N[C@@H](CO)C(=O)N[C@@H](CO)C(=O)NCC(=O)N[C@@H](C)C(=O)N1CCC[C@H]1C(=O)N1CCC[C@H]1C(=O)N1CCC[C@H]1C(=O)N[C@@H](CO)C(=O)N[C@@H](CCCCNC(=O)CC[C@H](NC(=O)CC[C@H](NC(=O)CC[C@H](NC(=O)CC[C@H](NC(=O)CCCCCCCCCCCCCCCCC(=O)O)C(=O)O)C(=O)O)C(=O)O)C(=O)O)C(N)=O)C(C)C [compound 65] (H-DVSSYLEEQAVREFIAWLVKGGPSSGAPPPSK([γGlu-γGlu-γGlu-γGlu-C18 diacid])-NH2; N-terminus assumed)
[1]; Table 2, C16 linker variants of 9-40amide Jant4 K40[X], read-out: Biactivity IC50
  IC50: 1070 nM
[2]; [3]
  solubility: > 25 mg/mL

## CCCCCCCCCCCCCCCC(=O)NCCCC[C@H](NC(=O)[C@H](CO)NC(=O)[C@@H]1CCCN1C(=O)[C@@H]1CCCN1C(=O)[C@@H]1CCCN1C(=O)[C@H](C)NC(=O)CNC(=O)[C@H](CO)NC(=O)[C@H](CO)NC(=O)[C@@H]1CCCN1C(=O)CNC(=O)CNC(=O)[C@H](CCCCN)NC(=O)[C@@H](NC(=O)[C@H](CC(C)C)NC(=O)[C@H](Cc1c[nH]c2ccccc12)NC(=O)[C@H](C)NC(=O)[C@@H](NC(=O)[C@H](Cc1ccccc1)NC(=O)[C@H](CCC(=O)O)NC(=O)[C@H](CCCNC(=N)N)NC(=O)[C@@H](NC(=O)[C@H](C)NC(=O)[C@H](CCC(N)=O)NC(=O)[C@H](CCC(=O)O)NC(=O)[C@@H](CCC(=O)O)NC(=O)[C@H](CC(C)C)NC(=O)[C@H](Cc1ccc(O)cc1)NC(=O)[C@H](CO)NC(=O)[C@H](CO)NC(=O)[C@@H](NC(=O)[C@@H](N)CC(=O)O)C(C)C)C(C)C)[C@@H](C)CC)C(C)C)C(N)=O [compound 49] (H-DVSSYL[dE]EQAVREFIAWLVKGGPSSGAPPPSK(Palmitoyl)-NH2; N-terminus assumed)
[1]; Table 5, d-AA variants of 9-40am Jant4 K40[C16], read-out: Bioactivity KC50
  IC50: 23 nM
[2]; 80 mM ammonium bicarbonate buffer, pH 7.7, Solubility [mg/mL] 80 mM/AmBicarb pH7.7, Table 5, 80 mM AmBicarb pH7.7
  solubility: > 20 mg/mL

## CCCCCCCCCCCCCCCC(=O)N[C@@H](CCC(=O)NCCOCCOCC(=O)NCCCC[C@H](NC(=O)[C@H](CO)NC(=O)[C@@H]1CCCN1C(=O)[C@@H]1CCCN1C(=O)[C@@H]1CCCN1C(=O)[C@H](C)NC(=O)CNC(=O)[C@H](CO)NC(=O)[C@H](CO)NC(=O)[C@@H]1CCCN1C(=O)CNC(=O)CNC(=O)[C@H](CCCCN)NC(=O)[C@@H](NC(=O)[C@H](CC(C)C)NC(=O)[C@H](Cc1c[nH]c2ccccc12)NC(=O)[C@H](C)NC(=O)[C@@H](NC(=O)[C@H](Cc1ccccc1)NC(=O)[C@H](CCC(=O)O)NC(=O)[C@H](CCCNC(=N)N)NC(=O)[C@@H](NC(=O)[C@H](C)NC(=O)[C@H](CCC(N)=O)NC(=O)[C@H](CCC(=O)O)NC(=O)[C@H](CCC(=O)O)NC(=O)[C@H](CC(C)C)NC(=O)[C@H](Cc1ccc(O)cc1)NC(=O)[C@H](CO)NC(=O)[C@H](CO)NC(=O)[C@@H](NC(=O)[C@@H](N)CC(=O)O)C(C)C)C(C)C)[C@@H](C)CC)C(C)C)C(N)=O)C(=O)O [compound 56] (H-DVSSYLEEQAVREFIAWLVKGGPSSGAPPPSK([AEEA-γGlu-Palmitoyl])-NH2; N-terminus assumed)
[2]; [3]
  solubility: > 20 mg/mL

## CCCCCCCCCCCCCCCC(=O)NCCCC[C@H](NC(=O)[C@H](CO)NC(=O)[C@@H]1CCCN1C(=O)[C@@H]1CCCN1C(=O)[C@@H]1CCCN1C(=O)[C@H](C)NC(=O)CNC(=O)[C@H](CO)NC(=O)[C@H](CO)NC(=O)[C@@H]1CCCN1C(=O)CNC(=O)CNC(=O)[C@H](CCCNC(=N)N)NC(=O)[C@@H](NC(=O)[C@H](CC(C)C)NC(=O)[C@H](Cc1c[nH]c2ccccc12)NC(=O)[C@H](C)NC(=O)[C@@H](NC(=O)[C@H](Cc1ccccc1)NC(=O)[C@H](CCC(=O)O)NC(=O)[C@H](CCCNC(=N)N)NC(=O)[C@@H](NC(=O)[C@H](C)NC(=O)[C@H](CCC(=O)O)NC(=O)[C@H](CCC(=O)O)NC(=O)[C@H](CCC(=O)O)NC(=O)[C@H](CC(C)C)NC(=O)[C@H](Cc1ccc(O)cc1)NC(=O)[C@H](CO)NC(=O)[C@H](CO)NC(=O)[C@@H](NC(=O)[C@@H](N)CC(=O)O)C(C)C)C(C)C)[C@@H](C)CC)C(C)C)C(N)=O [compound 71] (H-DVSSYLEEEAVREFIAWLVRGGPSSGAPPPSK(Palmitoyl)-NH2; N-terminus assumed)
[1]; Table 3, amino acid substitution variants of Jant4-K40, read-out: Bioactivity IC50
  IC50: 18 nM
[2]; [4]
  solubility: > 20 mg/mL

## CCCCCCCCCCCCCCCC(=O)NCCCC[C@H](NC(=O)[C@H](CO)NC(=O)[C@@H]1CCCN1C(=O)[C@@H]1CCCN1C(=O)[C@@H]1CCCN1C(=O)[C@H](C)NC(=O)CNC(=O)[C@H](CO)NC(=O)[C@H](CO)NC(=O)[C@@H]1CCCN1C(=O)CNC(=O)CNC(=O)[C@H](CCCCN)NC(=O)[C@@H](NC(=O)[C@H](CC(C)C)NC(=O)[C@H](Cc1c[nH]c2ccccc12)NC(=O)[C@H](C)NC(=O)[C@@H](NC(=O)[C@H](Cc1ccccc1)NC(=O)[C@H](CCC(=O)O)NC(=O)[C@H](CCCNC(=N)N)NC(=O)C(C)(C)NC(=O)[C@H](C)NC(=O)[C@H](CCC(N)=O)NC(=O)[C@H](CCC(=O)O)NC(=O)[C@H](CCC(=O)O)NC(=O)[C@H](CC(C)C)NC(=O)[C@H](Cc1ccc(O)cc1)NC(=O)[C@H](CO)NC(=O)[C@H](CO)NC(=O)[C@@H](NC(=O)[C@@H](N)CC(=O)O)C(C)C)[C@@H](C)CC)C(C)C)C(N)=O [compound 45] (H-DVSSYLEEQA[Aib]REFIAWLVKGGPSSGAPPPSK(Palmitoyl)-NH2; N-terminus assumed)
[1]; Table 4, Aib variants of 9-40am Jant4 K40[C16], read-out: Bioactivity IC50
  IC50: 8 nM
[2]; [4]
  solubility: 11.1 mg/mL (≈ 3.06 mM)
[2]; PBS, pH 7.7, Solubility [mg/mL] PBS pH7.7, Table 4, PBS pH7.7
  solubility: 0.4 mg/mL (≈ 0.11 mM)

## CCCCCCCCCCCCCCCC(=O)NCCCC[C@H](NC(=O)[C@H](CO)NC(=O)[C@@H]1CCCN1C(=O)[C@@H]1CCCN1C(=O)[C@@H]1CCCN1C(=O)[C@H](C)NC(=O)CNC(=O)[C@H](CO)NC(=O)[C@H](CO)NC(=O)[C@@H]1CCCN1C(=O)CNC(=O)CNC(=O)[C@H](CCCCN)NC(=O)[C@@H](NC(=O)[C@H](CC(C)C)NC(=O)[C@H](Cc1c[nH]c2ccccc12)NC(=O)C(C)(C)NC(=O)[C@@H](NC(=O)[C@H](Cc1ccccc1)NC(=O)[C@H](CCC(=O)O)NC(=O)[C@H](CCCNC(=N)N)NC(=O)[C@@H](NC(=O)[C@H](C)NC(=O)[C@H](CCC(N)=O)NC(=O)[C@H](CCC(=O)O)NC(=O)[C@H](CCC(=O)O)NC(=O)[C@H](CC(C)C)NC(=O)[C@H](Cc1ccc(O)cc1)NC(=O)[C@H](CO)NC(=O)[C@H](CO)NC(=O)[C@@H](NC(=O)[C@@H](N)CC(=O)O)C(C)C)C(C)C)[C@@H](C)CC)C(C)C)C(N)=O [compound 83] (H-DVSSYLEEQAVREFI[Aib]WLVKGGPSSGAPPPSK(Palmitoyl)-NH2)
[2]; [4]
  solubility: 12.6 mg/mL (≈ 3.45 mM)
[2]; PBS, pH 7.7
  solubility: 0.3 mg/mL (≈ 0.0821 mM)

## CCCCCCCCCCCCCCCC(=O)N[C@@H](CCC(=O)N[C@@H](CCC(=O)NCCOCCOCC(=O)NCCOCCOCC(=O)NCCCC[C@H](NC(=O)[C@H](CO)NC(=O)[C@@H]1CCCN1C(=O)[C@@H]1CCCN1C(=O)[C@@H]1CCCN1C(=O)[C@H](C)NC(=O)CNC(=O)[C@H](CO)NC(=O)[C@H](CO)NC(=O)[C@@H]1CCCN1C(=O)CNC(=O)CNC(=O)[C@H](CCCCN)NC(=O)[C@@H](NC(=O)[C@H](CC(C)C)NC(=O)[C@H](Cc1c[nH]c2ccccc12)NC(=O)[C@H](C)NC(=O)[C@@H](NC(=O)[C@H](Cc1ccccc1)NC(=O)[C@H](CCC(=O)O)NC(=O)[C@H](CCCNC(=N)N)NC(=O)[C@@H](NC(=O)[C@H](C)NC(=O)[C@H](CCC(N)=O)NC(=O)[C@H](CCC(=O)O)NC(=O)[C@H](CCC(=O)O)NC(=O)[C@H](CC(C)C)NC(=O)[C@H](Cc1ccc(O)cc1)NC(=O)[C@H](CO)NC(=O)[C@H](CO)NC(=O)[C@@H](NC(=O)[C@@H](N)CC(=O)O)C(C)C)C(C)C)[C@@H](C)CC)C(C)C)C(N)=O)C(=O)O)C(=O)O [compound 58] (H-DVSSYLEEQAVREFIAWLVKGGPSSGAPPPSK([AEEA-AEEA-γGlu-γGlu-Palmitoyl])-NH2; N-terminus assumed)
[2]; [3]
  solubility: > 25 mg/mL
